Source: US11827639B2, “TDO2 and IDO1 inhibitors” (Genentech, Inc., priority 2017, dated 2023)
pEC50: −log10 of the molar value.

Columns and labels:
IDO1 = IDO1 (Homo sapiens, UniProt P14902); assay: cell-based
Description: (§1) The NFK GreenScreen™ (NTRC, Netherlands) uses a specific chemical probe that binds to N-Formylkynurenine (NFK), a product of tryptophan catabolism facilitated by IDO or TDO and causes fluorescence at 510 nm when excited at 410 nm. […] The assay is multiplexed with Cell Titer-Glo® (Promega) to determine if compounds are cytotoxic. […] Cells are counted on a Vi-Cell (Beckman Coulter). SW48 cells are diluted to 1×10^6 cells/ml in assay media. A172 cells are diluted to 0.24×10^6 cells/ml in assay media. […] 5 ul of assay media containing 1.2 mM tryptophan are added to the SW48 cells for a final concentration of 200 uM tryptophan in each well. 5 ul of assay media containing 600 uM tryptophan and 600 ng/ml IFNγ are added to the A172 cells for a final concentration of 100 uM tryptophan and 100 ng/ml IFNγ in each well. The final DMSO concentration is 0.5%. Cell plates are placed at room temperature in a closed TC hood with the blower off to allow cells to settle for approximately 30 min. Plates are then moved to an incubator set at 37° C., 5% CO2 for 24 hours. After the 24 hour compound incubation, 8 ul of NFK green reagent is added to each well with a Multidrop™ Combi dispenser (Thermo Scientific). Plates are sealed and incubated at 37° C., 5% CO2 for 5 hours, then read on a PHERAstar® (BMG labtech). Data are analyzed by normalizing to DMSO and high inhibitor controls. After the plates have been read for NFK green, 25 ul of Cell Titer-Glo® (Promega) are added to each well, incubated for 15 minutes at room temperature, and read on the Envision (Perkin Elmer). Cell Titer-Glo data are analyzed by normalizing to the DMSO controls. Four-parameter curve fitting is used and EC50 data are reported.

TDO2 = TDO2 (Homo sapiens, UniProt P48775); assay: cell-based
Chain of TDO2 (P48775 whole entry): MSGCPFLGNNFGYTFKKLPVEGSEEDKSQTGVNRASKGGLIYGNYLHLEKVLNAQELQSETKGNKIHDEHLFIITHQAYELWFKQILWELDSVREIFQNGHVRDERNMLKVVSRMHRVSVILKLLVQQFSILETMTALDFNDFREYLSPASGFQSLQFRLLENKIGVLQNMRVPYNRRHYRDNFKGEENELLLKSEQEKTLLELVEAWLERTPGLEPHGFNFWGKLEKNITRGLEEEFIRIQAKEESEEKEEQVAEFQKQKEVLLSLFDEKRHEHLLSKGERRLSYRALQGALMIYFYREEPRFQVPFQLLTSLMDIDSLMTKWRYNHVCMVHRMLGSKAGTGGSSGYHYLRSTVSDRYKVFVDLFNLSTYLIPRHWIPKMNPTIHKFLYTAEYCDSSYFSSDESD
Description: as §1

Chain of IDO1 (P14902 whole entry): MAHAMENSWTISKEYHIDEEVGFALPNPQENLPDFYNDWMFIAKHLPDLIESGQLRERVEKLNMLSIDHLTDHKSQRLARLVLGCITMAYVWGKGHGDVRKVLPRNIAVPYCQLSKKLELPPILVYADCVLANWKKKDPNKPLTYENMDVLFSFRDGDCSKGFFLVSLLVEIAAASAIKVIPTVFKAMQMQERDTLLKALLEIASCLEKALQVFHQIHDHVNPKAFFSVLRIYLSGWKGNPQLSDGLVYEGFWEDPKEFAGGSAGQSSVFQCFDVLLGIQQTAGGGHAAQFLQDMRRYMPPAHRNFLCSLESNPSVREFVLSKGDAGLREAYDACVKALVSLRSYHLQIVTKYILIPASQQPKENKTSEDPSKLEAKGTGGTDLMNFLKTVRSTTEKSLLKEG

Compound	pEC50 (IDO1)	pEC50 (TDO2)
O=S(=O)(NC1CC1)N1CCC(C2c3ccc(F)cc3-c3cncn32)CC1 (centres unmarked) [Example 89, N-cyclopropyl-4-(8-fluoro-5H-imidazo[5,1-a]isoindol-5-yl)piperidine-1-sulfonamide]	5.23	6.66
N#Cc1cccc(C2c3ccccc3-c3cncn32)c1 (centres unmarked) [Example 17, 3-(5H-imidazo[5,1-a]isoindol-5-yl)benzonitrile]	4.80	5.70
OCc1cccc(C2c3ccccc3-c3cncn32)n1 (centres unmarked) [Example 03, (6-(5H-imidazo[5,1-a]isoindol-5-yl)pyridin-2-yl)methanol]	–	4.89
c1ccc2c(c1)-c1cncn1C2C1CC2(COC2)C1 (centres unmarked) [Example 39, 5-(2-oxaspiro[3.3]heptan-6-yl)-5H-imidazo[5,1-a]isoindole]	4.96	6.23
CS(=O)(=O)N1CC2(CCC(C3c4ccccc4-c4cncn43)CC2)C1 (single isomer, unassigned) [Example 78b]	5.85	5.60
NS(=O)(=O)N1CC2C(C1)C2C1c2ccccc2-c2cncn21 (centres unmarked) [Example 96, 6-(5H-imidazo[5,1-a]isoindol-5-yl)-3-azabicyclo[3.1.0]hexane-3-sulfonamide]	5.05	6.41
CS(=O)(=O)c1ccc(C2c3ccccc3-c3cncn32)cc1 (centres unmarked) [Example 56, 5-(4-(methylsulfonyl)phenyl)-5H-imidazo[5,1-a]isoindole]	5.34	6.19
C[C@H](O)c1cccc([C@H]2c3ccccc3-c3cncn32)c1 [Example 10a, (S)-1-(3-((S)-5H-imidazo[5,1-a]isoindol-5-yl)phenyl)ethan-1-ol]	5.30	6.49
CS(=O)(=O)N1CC2CC(C3c4ccccc4-c4cncn43)CC2C1 (centres unmarked) [Example 75a, 5-(2-(methylsulfonyl)octahydrocyclopenta[c]pyrrol-5-yl)-5H-imidazo[5,1-a]isoindole]	5.12	5.68
c1ccc2c(c1)-c1cncn1[C@@H]2C1CCCCC1 [Example 19a]	5.00	4.77
CC(O)c1cccc(C2c3ccccc3-c3cncn32)c1 (single isomer, unassigned) [Example 10d]	–	5.30
CC1(C)CC(C2c3ccccc3-c3cncn32)C1 (centres unmarked) [Example 67, 5-(3,3-dimethylcyclobutyl)-5H-imidazo[5,1-a]isoindole]	6.05	6.68
O=S(=O)(N1CCC1)N1CCC(C2c3ccc(F)cc3-c3cncn32)CC1 (centres unmarked) [Example 88, 5-(1-(azetidin-1-ylsulfonyl)piperidin-4-yl)-8-fluoro-5H-imidazo[5,1-a]isoindole]	5.28	6.05
NC(=O)C1(CC2c3ccccc3-c3cncn32)CC1 (centres unmarked) [Example 54, 1-((5H-imidazo[5,1-a]isoindol-5-yl)methyl)cyclopropane-1-carboxamide]	–	5.27
NC(=O)C1CCC(C2c3ccccc3-c3cncn32)CC1 (single isomer, unassigned) [Example 60c]	5.19	–
CS(=O)(=O)N1CC2C(C1)C2C1c2ccccc2-c2cncn21 (centres unmarked) [Example 93, 5-(3-(methylsulfonyl)-3-azabicyclo[3.1.0]hexan-6-yl)-5H-imidazo[5,1-a]isoindole]	5.07	6.11
Cn1cc(C2c3ccccc3-c3cncn32)cn1 (single isomer, unassigned) [Example 79a]	–	5.00
OCc1cccc([C@H]2c3ccccc3-c3cncn32)c1 [Example 01b, (S)-(3-(5H-imidazo[5,1-a]isoindol-5-yl)phenyl)methanol]	5.07	6.51
CS(=O)(=O)N1CCCC(C2c3ccccc3-c3cncn32)C1 (centres unmarked) [Example 71, 5-(1-(methylsulfonyl)piperidin-3-yl)-5H-imidazo[5,1-a]isoindole]	4.85	6.25
c1ccc2c(c1)-c1cncn1C2C1CCOCC1 (centres unmarked) [Example 14, 5-(tetrahydro-2H-pyran-4-yl)-5H-imidazo[5,1-a]isoindole]	4.82	6.09
CC(O)c1cccc(C2c3ccccc3-c3cncn32)c1 (single isomer, unassigned) [Example 10b]	–	5.24
OCc1ccc(F)c(C2c3ccccc3-c3cncn32)c1 (centres unmarked) [Example 08, (4-fluoro-3-(5H-imidazo[5,1-a]isoindol-5-yl)phenyl)methanol]	–	5.82
CS(=O)(=O)N1CC2(CC(C3c4ccccc4-c4cncn43)C2)C1 (single isomer, unassigned) [Example 72b]	–	4.77
Fc1cccc(C2c3ccccc3-c3cncn32)c1 (centres unmarked) [Example 30, 5-(3-fluorophenyl)-5H-imidazo[5,1-a]isoindole]	5.30	6.47
CS(=O)(=O)N1CCC(C2c3ccccc3-c3cncn32)CC1 (centres unmarked) [Example 16, 5-(1-(methylsulfonyl)piperidin-4-yl)-5H-imidazo[5,1-a]isoindole]	6.03	6.82
NC(=O)c1cccc(C2c3ccccc3-c3cncn32)c1 (centres unmarked) [Example 11, 3-(5H-imidazo[5,1-a]isoindol-5-yl)benzamide]	–	6.19
c1ccc2c(c1)-c1cncn1C2C1CCC2(CC1)OCCO2 (centres unmarked) [Example 26, 5-(1,4-dioxaspiro[4.5]decan-8-yl)-5H-imidazo[5,1-a]isoindole]	5.01	5.49

Compound	pEC50 (IDO1)	pEC50 (TDO2)
NS(=O)(=O)c1cccc(C2c3ccccc3-c3cncn32)c1 (single isomer, unassigned) [Example 07a]	–	5.14
C1=C(C2c3ccccc3-c3cncn32)CCn2cccc21 (centres unmarked) [Example 04, 5-(5,6-dihydroindolizin-7-yl)-5H-imidazo[5,1-a]isoindole]	4.92	5.64
Cn1ncc2cc(C3c4ccccc4-c4cncn43)ccc21 (centres unmarked) [Example 55b]	5.09	6.11
CS(=O)(=O)N1CC2(CCC(C3c4ccccc4-c4cncn43)CC2)C1 (single isomer, unassigned) [Example 78a]	4.74	5.00
c1cncc(C2c3ccccc3-c3cncn32)c1 (centres unmarked) [Example 37, 5-(pyridin-3-yl)-5H-imidazo[5,1-a]isoindole]	–	5.39
NS(=O)(=O)N1CCC(C2c3ccc(F)cc3-c3cncn32)CC1 (single isomer, unassigned) [Example 74b]	5.32	7.19
CC(C)(C)OC(=O)N1CC2(CCC(C3c4ccccc4-c4cncn43)CC2)C1 (centres unmarked) [Example 76, tert-butyl 7-(5H-imidazo[5,1-a]isoindol-5-yl)-2-azaspiro[3.5]nonane-2-carboxylate]	6.85	5.74
CS(=O)(=O)C1CCC(C2c3ccccc3-c3cncn32)CC1 (single isomer, unassigned) [Example 83a]	–	4.66
CC(O)c1cccc(C2c3ccccc3-c3cncn32)c1 (single isomer, unassigned) [Example 10c]	4.66	6.23
NC(=O)C1CCC(C2c3ccccc3-c3cncn32)CC1 (single isomer, unassigned) [Example 60b]	5.82	6.57
N#CC1(CC2c3ccccc3-c3cncn32)CC1 (centres unmarked) [Example 48, 1-((5H-imidazo[5,1-a]isoindol-5-yl)methyl)cyclopropane-1-carbonitrile]	–	5.21
NS(=O)(=O)N1CCCC(C2c3ccccc3-c3cncn32)C1 (centres unmarked) [Example 64, 3-(5H-imidazo[5,1-a]isoindol-5-yl)piperidine-1-sulfonamide]	5.36	6.39
c1ccc2c(c1)-c1cncn1C2C1CCn2nccc2C1 (single isomer, unassigned) [Example 05c]	–	4.62
CC(C)(C)OC(=O)N1CCC2(CC1)CC(C1c3ccccc3-c3cncn31)C2 (centres unmarked) [Example 57, tert-butyl 2-(5H-imidazo[5,1-a]isoindol-5-yl)-7-azaspiro[3.5]nonane-7-carboxylate]	6.04	5.82
O=C(C1CC1)N1CCC(C2c3ccccc3-c3cncn32)CC1 (centres unmarked) [Example 18, (4-(5H-imidazo[5,1-a]isoindol-5-yl)piperidin-1-yl)(cyclopropyl)methanone]	4.72	5.02
CS(=O)(=O)C1CCC(C2c3ccccc3-c3cncn32)CC1 (single isomer, unassigned) [Example 83b]	5.64	6.11
Cn1cc(C2c3ccccc3-c3cncn32)ccc1=O (single isomer, unassigned) [Example 84a]	–	5.15
CC1(O)CCC(C2c3ccccc3-c3cncn32)CC1 (centres unmarked) [Example 70, 4-(5H-imidazo[5,1-a]isoindol-5-yl)-1-methylcyclohexan-1-ol]	6.07	6.74
c1ccc2c(c1)-c1cncn1C2c1ccncc1 (centres unmarked) [Example 41, 5-(pyridin-4-yl)-5H-imidazo[5,1-a]isoindole]	–	5.60
OCc1cccc([C@@H]2c3ccccc3-c3cncn32)c1 [Example 01a, (R)-(3-(5H-imidazo[5,1-a]isoindol-5-yl)phenyl)methanol]	–	4.96
c1ccc2c(c1)-c1cncn1C2C1CCn2nccc2C1 (single isomer, unassigned) [Example 05b]	–	5.77
c1ccc2c(c1)-c1cncn1C2CCC1CCCCC1 (centres unmarked) [Example 22, 5-(2-cyclohexylethyl)-5H-imidazo[5,1-a]isoindole]	–	5.64
c1ccc2c(c1)-c1cncn1C2c1cnn2c1CCC2 (centres unmarked) [Example 87, 5-(5,6-dihydro-4H-pyrrolo[1,2-b]pyrazol-3-yl)-5H-imidazo[5,1-a]isoindole]	–	5.57
CCS(=O)(=O)Nc1cc2n(n1)CCC(C1c3ccccc3-c3cncn31)=C2 (centres unmarked) [Example 68, N-(5-(5H-imidazo[5,1-a]isoindol-5-yl)-6,7-dihydropyrazolo[1,5-a]pyridin-2-yl)ethanesulfonamide]	–	5.85
CCS(=O)(=O)N1CC(C2c3ccccc3-c3cncn32)C1 (centres unmarked) [Example 25, 5-(1-(ethylsulfonyl)azetidin-3-yl)-5H-imidazo[5,1-a]isoindole]	–	4.85
c1ccc2c(c1)-c1cncn1C2C1CCn2nccc2C1 (single isomer, unassigned) [Example 05a]	–	5.96
